In US20240383891A1, “BENZIMIDAZOLE AND RELATED ANALOGS FOR INHIBITING YAP/TAZ-TEAD” (SpringWorks Therapeutics, Inc., priority 2023, published 2024):

Assays:
Assay type in all cases: cell-based
[1] = tested on: YAP/TAZ-TEAD transcription; test: reporter gene assay for measuring the inhibition of YAP/TAZ-TEAD transcription (TEAD-responsive element luciferase reporter in Hek293T cells); settings: Homo sapiens, HEK-293T; Hek293T cells transiently transfected with TEAD-responsive element luciferase reporter, 24 hours incubation
Procedure: Example 21: Activity of compounds of the disclosure in a reporter gene assay for measuring the inhibition of YAP/TAZ-TEAD transcription Hek293T cells are cultured in DMEM supplemented with 10% fetal bovine serum, Sodium pyruvate, Sodium bicarbonate, L-glutamine. The cells are harvested and transiently transfected with TEAD-responsive element luciferase reporter. Transfected cells are plated in 384-well plate containing pre-diluted compounds. After 24 hours incubation at 37° C./5% CO2, assay plates were cooled to room temperature and levelled to an equal volume per well, prior to the addition of 25 uL luciferase substrate SteadyLite (Perkin Elmer)/well. The plate was shaken for 10 min at 600 rpm, centrifuged for 1 min at 500 rpm and measured with an Envision reader (PerkinElmer). The amount of relative light units produced by the TEAD reporter is used to calculate the percentage of inhibition. The percent of reporter inhibition was calculated in the presence of a positive control inhibitor (100% inhibition) versus a condition with the presence of the vehicle basal activity of the reporter (0% inhibition). The ability of a test compound to inhibit this activity was determined as: Percentage inhibition=[[…]((RLU determined in the presence of vehicle—RLU determined for sample with test compound present) divided by (RLU determined in the presence of vehicle—RLU determined for sample with positive control inhibitor))] *100.
The activities of example compounds tested are depicted in Table 3. The activity ranges A, B and C refer to IC50 values in the reporter gene assay as follows: “A”: IC50<1 μM; “B”: 1 μM≤IC50 10 μM and “C”: IC50>10 μM; NT=not tested.

NCI-H226 = test: mesothelioma cell line proliferation assay, NCI-H226; settings: Homo sapiens, 144 h; NCI-H226 mesothelioma cells, 6 days incubation, ATPlite cell viability
Procedure: (§1) Mesothelioma cell lines, NCI-H226 and NCI-H2052 (both sourced from the ATCC cell culture collection) are plated in 96-well plates (Corning® 96 Well White Polystyrene Microplate clear flat bottom, white polystyrene (TC-Treated)), at 1500 cells/well in full medium (RPMI 1640 ATCC modification with L-glutamine, HEPES, Phenol Red, Sodium Pyruvate, High glucose, Low sodium bicarbonate and 10% fetal bovine serum). Cells are incubated overnight at 37° C. in an incubator with 5% CO2. Then compounds, dissolved in DMSO, are added in dose-response. Cells are incubated with compound dilutions for another 6 days at 37° C. in an incubator with 5% CO2. Cell viability is quantitated using the ATPlite kit (Perkin-Elmer) and the luminescence is read-out using an Envision instrument (Perkin-Elmer). The amount of relative light units produced using the ATPlite kit is used to calculate percent of inhibition. The activities of some example compounds are depicted in Table 4. The activity ranges A, B and C refer to EC50 values in the mesothelioma cell line proliferation assay as described as follows: “A”: EC50<1 μM; “B”: 1 μM s […] and “C”: EC50>10 μM; NT: not tested.

NCI-H2052 = test: mesothelioma cell line proliferation assay, NCI-H2052; settings: Homo sapiens, 144 h; NCI-H2052 mesothelioma cells, 6 days incubation, ATPlite cell viability
Procedure: as §1

IC50 [1] [nM]	EC50 (NCI-H226) [nM]	EC50 (NCI-H2052) [nM]	SMILES
> 10000			O=C(O)[C@H]1C[C@H]1c1nc(-c2ccc(C(F)(F)F)cc2)c2ccccn12 (racemic) [Cpd. No. 018, cis-2-(1-(4-(trifluoromethyl)phenyl)imidazo[1,5-a]pyridin-3-yl)cyclopropane-1-carboxylic acid]
< 1000			O=C(O)[C@@H]1C[C@H]1c1nc(-c2ccc(C(F)(F)F)cc2)c2ccccn12 (relative stereo) [Cpd. No. 012, trans-2-(1-(4-(trifluoromethyl)phenyl)imidazo[1,5-a]pyridin-3-yl)cyclopropane-1-carboxylic acid]
< 1000	< 1000	< 1000	C=CC(=O)NCc1nc(-c2ccc(C(F)(F)F)cc2)n2ccccc12 [Cpd. No. 001, N-((3-(4-(trifluoromethyl)phenyl)imidazo[1,5-a]pyridin-1-yl)methyl)acrylamide]
< 1000	< 1000	< 1000	C=CC(=O)NCc1nc(-c2ccc(C(F)(F)F)cc2)c2ccccn12 [Cpd. No. 002, N-((1-(4-(trifluoromethyl)phenyl)imidazo[1,5-a]pyridin-3-yl)methyl)acrylamide]
> 10000			CCC(=O)NCc1nc(-c2ccc(C(F)(F)F)cc2)c2ccccn12 [Cpd. No. 003, N-((1-(4-(trifluoromethyl)phenyl)imidazo[1,5-a]pyridin-3-yl)methyl)propionamide]
> 10000			CS(=O)(=O)NCc1nc(-c2ccc(C(F)(F)F)cc2)c2ccccn12 [Cpd. No. 004, N-((1-(4-(trifluoromethyl)phenyl)imidazo[1,5-a]pyridin-3-yl)methyl)methanesulfonamide]
> 10000			CCC(=O)NCc1nc(-c2ccc(C(F)(F)F)cc2)n2ccccc12 [Cpd. No. 005, N-((3-(4-(trifluoromethyl)phenyl)imidazo[1,5-a]pyridin-1-yl)methyl)propionamide]
1000 to 10000			CS(=O)(=O)NCc1nc(-c2ccc(C(F)(F)F)cc2)n2ccccc12 [Cpd. No. 006, N-((3-(4-(trifluoromethyl)phenyl)imidazo[1,5-a]pyridin-1-yl)methyl)methanesulfonamide]
< 1000			O=C(O)/C=C/c1nc(-c2ccc(C(F)(F)F)cc2)n2ccccc12 [Cpd. No. 007, (E)-3-(3-(4-(trifluoromethyl)phenyl)imidazo[1,5-a]pyridin-1-yl)acrylic acid]
< 1000	< 1000	< 1000	O=C(O)/C=C/c1nc(-c2ccc(C(F)(F)F)cc2)c2ccccn12 [Cpd. No. 008, (E)-3-(1-(4-(trifluoromethyl)phenyl)imidazo[1,5-a]pyridin-3-yl)acrylic acid]
< 1000	< 1000	< 1000	C=CC(=O)NCc1nc(-c2ccc(C(F)(F)F)cc2)n2cc(C(F)(F)F)ccc12 [Cpd. No. 009, N-((6-(trifluoromethyl)-3-(4-(trifluoromethyl)phenyl)imidazo[1,5-a]pyridin-1-yl)methyl)acrylamide]
> 10000			CC(=O)NCc1nc(-c2ccc(C(F)(F)F)cc2)n2cc(C(F)(F)F)ccc12 [Cpd. No. 010, N-((6-(trifluoromethyl)-3-(4-(trifluoromethyl)phenyl)imidazo[1,5-a]pyridin-1-yl)methyl)acetamide]
> 10000			CS(=O)(=O)NCc1nc(-c2ccc(C(F)(F)F)cc2)n2cc(C(F)(F)F)ccc12 [Cpd. No. 011, N-((6-(trifluoromethyl)-3-(4-(trifluoromethyl)phenyl)imidazo[1,5-a]pyridin-1-yl)methyl)methanesulfonamide]
< 1000			O=Cc1ccc(-c2nc(-c3ccc(C(F)(F)F)cc3)c3ccccn23)cc1O [Cpd. No. 013, 2-hydroxy-4-(1-(4-(trifluoromethyl)phenyl)imidazo[1,5-a]pyridin-3-yl)benzaldehyde]
> 10000			O=C(O)C1CC(O)(c2nc(-c3ccc(C(F)(F)F)cc3)c3ccccn23)C1 (stereo not shown) [Cpd. No. 014, 3-hydroxy-3-(1-(4-(trifluoromethyl)phenyl)imidazo[1,5-a]pyridin-3-yl)cyclobutane-1-carboxylic acid]
> 10000			O=C(O)Cc1nc(-c2ccc(C(F)(F)F)cc2)c2ccccn12 [Cpd. No. 015, 2-(1-(4-(trifluoromethyl)phenyl)imidazo[1,5-a]pyridin-3-yl)acetic acid]
> 10000			O=C(O)C1CCN1c1nc(-c2ccc(C(F)(F)F)cc2)c2ccccn12 (stereo not shown) [Cpd. No. 016, 1-(1-(4-(trifluoromethyl)phenyl)imidazo[1,5-a]pyridin-3-yl)azetidine-2-carboxylic acid]
> 10000			O=C(O)C1CN(c2nc(-c3ccc(C(F)(F)F)cc3)c3ccccn23)C1 [Cpd. No. 017, 1-(1-(4-(trifluoromethyl)phenyl)imidazo[1,5-a]pyridin-3-yl)azetidine-3-carboxylic acid]
> 10000			O=C(O)[C@H]1C[C@@H](c2nc(-c3ccc(C(F)(F)F)cc3)c3ccccn32)C1 [Cpd. No. 019, cis-3-(1-(4-(trifluoromethyl)phenyl)imidazo[1,5-a]pyridin-3-yl)cyclobutane-1-carboxylic acid]
< 1000			O=C(O)[C@H]1C[C@H](c2nc(-c3ccc(C(F)(F)F)cc3)c3ccccn32)C1 [Cpd. No. 020, trans-3-(1-(4-(trifluoromethyl)phenyl)imidazo[1,5-a]pyridin-3-yl)cyclobutane-1-carboxylic acid]
> 10000			O=C(O)CNc1nc(-c2ccc(C(F)(F)F)cc2)c2ccccn12 [Cpd. No. 021, (1-(4-(trifluoromethyl)phenyl)imidazo[1,5-a]pyridin-3-yl)glycine]
< 1000	< 1000	< 1000	O=C(O)/C=C/c1nc(-c2ccc(C(F)(F)F)cc2)c2ccc(C(F)(F)F)cn12 [Cpd. No. 022, (E)-3-(6-(trifluoromethyl)-1-(4-(trifluoromethyl)phenyl)imidazo[1,5-a]pyridin-3-yl)acrylic acid]
< 1000			O=C(O)CCc1nc(-c2ccc(C(F)(F)F)cc2)c2ccccn12 [Cpd. No. 023, 3-(1-(4-(trifluoromethyl)phenyl)imidazo[1,5-a]pyridin-3-yl)propanoic acid]
1000 to 10000			CN(CC(=O)O)c1nc(-c2ccc(C(F)(F)F)cc2)c2ccccn12 [Cpd. No. 024, N-methyl-N-(1-(4-(trifluoromethyl)phenyl)imidazo[1,5-a]pyridin-3-yl)glycine]
< 1000	< 1000	< 1000	O=c1[nH]nc(-c2nc(-c3ccc(C(F)(F)F)cc3)c3ccccn23)o1 [Cpd. No. 025, 5-(1-(4-(trifluoromethyl)phenyl)imidazo[1,5-a]pyridin-3-yl)-1,3,4-oxadiazol-2(3H)-one]
< 1000	< 1000	< 1000	C=CC(=O)NCc1nc(C2CCC(F)(F)CC2)c2ccccn12 [Cpd. No. 026, N-((1-(4,4-difluorocyclohexyl)imidazo[1,5-a]pyridin-3-yl)methyl)acrylamide]
< 1000	< 1000	< 1000	CNS(=O)(=O)/C=C/c1nc(-c2ccc(C(F)(F)F)cc2)c2ccccn12 [Cpd. No. 027, (E)-N-methyl-2-(1-(4-(trifluoromethyl)phenyl)imidazo[1,5-a]pyridin-3-yl)ethene-1-sulfonamide]
< 1000			O=c1[nH]c(-c2nc(-c3ccc(C(F)(F)F)cc3)c3ccccn23)no1 [Cpd. No. 028, 3-(1-(4-(trifluoromethyl)phenyl)imidazo[1,5-a]pyridin-3-yl)-1,2,4-oxadiazol-5(4H)-one]
1000 to 10000			O=c1[nH]nc(-c2nc(-c3ccc(C(F)(F)F)cc3)c3ccccn23)[nH]1 [Cpd. No. 029, 5-(1-(4-(trifluoromethyl)phenyl)imidazo[1,5-a]pyridin-3-yl)-2,4-dihydro-3H-1,2,4-triazol-3-one]
1000 to 10000			O=C1CC(c2nc(-c3ccc(C(F)(F)F)cc3)c3ccccn23)=NO1 [Cpd. No. 030, 3-(1-(4-(trifluoromethyl)phenyl)imidazo[1,5-a]pyridin-3-yl)isoxazol-5(4H)-one]
